What is called Ki is the dissociation constant of the complex between target and ligand, obtained from inhibition or displacement. Read a low Ki as tighter binding.

The nature of experiment [1]: Ratio of Ki value towards dopamine D2L receptor to that of serotonin S-2A receptor.
Experiment [2] has as its target T1, 5-hydroxytryptamine receptor 2A (Rattus norvegicus, UniProt P14842). Description: Ability to inhibit the binding of iodine-125-labelled lysergic acid diethylamide([125I]-LSD) to the S-2A serotonin receptor.
For experiment [3], the target named is T2, 5-hydroxytryptamine receptor 2C (Rattus norvegicus, UniProt P08909).
T2 sequence (P08909 whole entry): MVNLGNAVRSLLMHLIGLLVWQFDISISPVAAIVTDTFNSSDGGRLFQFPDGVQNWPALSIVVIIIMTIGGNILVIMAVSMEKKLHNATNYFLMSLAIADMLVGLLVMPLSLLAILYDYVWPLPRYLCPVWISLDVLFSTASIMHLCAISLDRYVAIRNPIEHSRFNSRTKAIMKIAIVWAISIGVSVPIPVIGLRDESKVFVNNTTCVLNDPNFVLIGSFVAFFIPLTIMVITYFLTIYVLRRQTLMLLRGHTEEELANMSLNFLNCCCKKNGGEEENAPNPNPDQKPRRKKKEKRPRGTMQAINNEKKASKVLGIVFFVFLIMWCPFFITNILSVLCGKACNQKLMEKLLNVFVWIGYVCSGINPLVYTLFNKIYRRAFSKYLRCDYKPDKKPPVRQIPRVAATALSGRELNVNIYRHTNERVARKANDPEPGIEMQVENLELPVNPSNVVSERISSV
Description: Ability to inhibit the binding of iodine-125-labelled lysergic acid diethylamide([125I]-LSD) to the S-2C serotonin receptor.

Experiment [4] deals with D(2) dopamine receptor (Homo sapiens, UniProt P14416). Kind of experiment: Ability to inhibit the binding of [3H]spiperone to the Dopamine receptor D2L in COS7 cells. The format is cell-based, COS-7.
The target of experiment [5] is T3, D(4) dopamine receptor (Homo sapiens, UniProt P21917).
T3 sequence (P21917 whole entry): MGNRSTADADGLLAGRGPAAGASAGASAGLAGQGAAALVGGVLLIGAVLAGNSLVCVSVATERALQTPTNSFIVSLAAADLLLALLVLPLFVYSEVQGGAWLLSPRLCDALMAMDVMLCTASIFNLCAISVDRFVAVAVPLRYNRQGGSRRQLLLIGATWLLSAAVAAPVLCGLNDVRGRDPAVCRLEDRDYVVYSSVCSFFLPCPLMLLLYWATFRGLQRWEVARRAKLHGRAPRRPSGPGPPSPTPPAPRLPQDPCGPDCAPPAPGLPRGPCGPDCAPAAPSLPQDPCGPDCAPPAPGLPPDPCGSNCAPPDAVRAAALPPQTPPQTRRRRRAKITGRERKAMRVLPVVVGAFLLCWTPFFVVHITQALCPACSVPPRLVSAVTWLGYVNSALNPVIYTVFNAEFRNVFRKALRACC
Description: Ability to inhibit the binding of [3H]spiperone to the Dopamine receptor D4 in COS7 cells. The format is cell-based, COS-7.

Experiment [6] concerns the target T2, 5-hydroxytryptamine receptor 2C. Description: Ability to inhibit the binding of iodine-125-labelled lysergic acid diethylamide([125I]-LSD) to the S-2C serotonin receptor in NIH3T3 cell line membranes. The format is cell-based.
In experiment [7] the target is T1, 5-hydroxytryptamine receptor 2A. Kind of experiment: Ability to inhibit the binding of iodine-125-labelled lysergic acid diethylamide([125I]-LSD) to the S-2A serotonin receptor in NIH3T3 cell line membranes. The format is cell-based.

T1 sequence (P14842 whole entry): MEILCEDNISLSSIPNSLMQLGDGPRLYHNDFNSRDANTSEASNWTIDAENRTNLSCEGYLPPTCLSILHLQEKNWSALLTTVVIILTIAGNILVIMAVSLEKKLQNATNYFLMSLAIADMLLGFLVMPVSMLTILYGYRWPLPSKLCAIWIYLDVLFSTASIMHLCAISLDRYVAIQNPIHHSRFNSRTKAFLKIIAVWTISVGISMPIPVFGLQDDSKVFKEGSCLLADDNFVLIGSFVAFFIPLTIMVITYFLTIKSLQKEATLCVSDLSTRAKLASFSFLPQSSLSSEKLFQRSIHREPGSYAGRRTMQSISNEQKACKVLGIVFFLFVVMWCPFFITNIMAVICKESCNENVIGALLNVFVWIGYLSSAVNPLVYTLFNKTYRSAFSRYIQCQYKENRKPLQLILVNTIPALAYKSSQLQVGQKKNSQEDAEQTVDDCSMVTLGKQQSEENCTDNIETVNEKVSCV
D(2) dopamine receptor, sequence (P14416 whole entry): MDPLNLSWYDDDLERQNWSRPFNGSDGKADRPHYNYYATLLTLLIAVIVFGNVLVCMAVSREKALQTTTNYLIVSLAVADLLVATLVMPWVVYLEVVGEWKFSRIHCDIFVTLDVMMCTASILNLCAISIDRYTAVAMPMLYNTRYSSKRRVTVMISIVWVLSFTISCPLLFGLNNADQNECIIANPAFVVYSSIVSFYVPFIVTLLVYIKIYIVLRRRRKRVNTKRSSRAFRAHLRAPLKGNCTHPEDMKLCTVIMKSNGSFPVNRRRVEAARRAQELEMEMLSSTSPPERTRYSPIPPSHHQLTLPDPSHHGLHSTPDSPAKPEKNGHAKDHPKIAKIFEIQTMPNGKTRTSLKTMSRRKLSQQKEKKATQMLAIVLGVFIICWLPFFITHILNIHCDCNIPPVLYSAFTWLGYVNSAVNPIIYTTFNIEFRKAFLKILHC

Take `CC(C)=C1c2ccccc2C=C(C2=CCN(C)CC2)c2cc(Cl)ccc21`: in experiment [1], the Ratio worked out at 0.58. In addition, the inhibition constant Ki in experiment [2] stood at 760 nM; in experiment [3], 1200 nM; in experiment [4], 440 nM; in experiment [5] it was 100 nM.

In the case of `CN1CC=C(C2=Cc3ccccc3Oc3ccccc32)CC1`, the inhibitory constant (Ki) was determined as 20 nM in experiment [6], 29 nM in experiment [5] and 6 nM in experiment [7].

Regarding `CCN1CC=C(C2=Cc3ccccc3Cc3ccccc32)CC1`, the Ratio in experiment [1] is 9.8. In addition, the Ki in experiment [2] turned out to be 4.5 nM; in experiment [3], 7 nM; in experiment [4], 44 nM; in experiment [5], 28 nM.

`CCN1CC=C(C2=Cc3ccccc3Oc3ccccc32)CC1`: the Ratio in experiment [1] is 10. The inhibition constant Ki in experiment [6] worked out at 14 nM; in experiment [4], 61 nM; in experiment [5] it was 26 nM; in experiment [7] it was 6 nM.

Turning to `C=CCN1CC=C(C2=Cc3ccccc3Cc3ccccc32)CC1`, in experiment [1], the Ratio was 4.2. Besides, the inhibition constant Ki in experiment [2] amounted to 20 nM; in experiment [3], 46 nM; in experiment [4], 83 nM; in experiment [5], 60 nM.

As to `CN1CC=C(C2=Cc3ccccc3Cc3ccccc32)CC1`, in experiment [1], the Ratio was determined as 15. The Ki turned out to be 6 nM in experiment [2], 14 nM in experiment [3], 89 nM in experiment [4] and 12 nM in experiment [5].

With `CN1CCN(C2=Cc3ccccc3Oc3ccc(Cl)cc32)CC1`, the Ratio in experiment [1] was found to be 0.8.

Turning to `CN1CCN(C2=Cc3ccccc3Oc3ccccc32)CC1`, in experiment [1], the Ratio is 5.

As for `CC1c2ccccc2C=C(C2=CCN(C)CC2)c2ccccc21` (configuration not stated), in experiment [1], the Ratio was determined as 9.4.

As for `CC(C)=C1c2ccccc2C=C(C2=CCN(C)CC2)c2ccccc21`, in experiment [1], the Ratio worked out at 0.48.

For the molecule `CN1CCC(C2=Cc3ccccc3Oc3ccccc32)CC1`, the Ratio in experiment [1] is 30. Besides, the inhibitory constant (Ki) in experiment [6] is 8 nM; in experiment [4] it was 82 nM; in experiment [5] it was 9.5 nM; in experiment [7], 3 nM.

As for `C=CCN1CC=C(C2=Cc3ccccc3Oc3ccccc32)CC1`, the Ratio in experiment [1] was determined as 5. In addition, the Ki in experiment [6] is 51 nM; in experiment [4] it was 110 nM; in experiment [5], 37 nM; in experiment [7] it was 22 nM.
